Values belong to the molecule of their own block, whether it stands above or below them.
Columns and labels:
Type in all cases: biochemical
[1] = molecular target: T1, BlaMab (M. abscessus endogenous class A beta-lactamase) (Mycobacteroides abscessus, UniProt B1MCI3); assay: TLC turnover assay with recombinant BlaMab
T1 construct: gene MAB_2875; -30 residue N-terminal truncated protein, 6x-His tagged

[2] = molecular target: T1, BlaMab (M. abscessus endogenous class A beta-lactamase); assay: nitrocefin hydrolysis kinetics (Ki app, k2/Ki, koff) with recombinant BlaMab; TLC penicillin V assay
[3] = molecular target: T1, BlaMab (M. abscessus endogenous class A beta-lactamase); assay: spectrophotometric hydrolysis at […] nm, Michaelis-Menten (Km across […] relebactam)

T1 sequence (B1MCI3 entry or part of it): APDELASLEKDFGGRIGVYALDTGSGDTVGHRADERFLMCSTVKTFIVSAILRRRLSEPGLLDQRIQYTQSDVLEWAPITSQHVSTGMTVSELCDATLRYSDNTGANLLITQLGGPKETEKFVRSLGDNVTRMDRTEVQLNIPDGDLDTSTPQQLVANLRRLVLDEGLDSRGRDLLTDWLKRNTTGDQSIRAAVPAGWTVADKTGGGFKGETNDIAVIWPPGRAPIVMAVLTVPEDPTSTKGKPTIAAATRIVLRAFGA

Structure (SMILES): CC1(C)S[C@@H]2[C@H](NC(=O)COc3ccccc3)C(=O)N2[C@H]1C(=O)O [PenV, penicillin V]
TLC turnover assay with recombinant BlaMab [1]: The hydrolysis of penicillin V to penicilloic acid by BlaMab resulted in a spot with reduced Rf value

Ki [2]: 184 nM
Structure (SMILES): O=C(NC1CCNCC1)[C@@H]1CC[C@@H]2CN1C(=O)N2OS(=O)(=O)O [REL, relebactam]

Structure (SMILES): O=C(Cc1cccs1)N[C@@H]1C(=O)N2C(C(=O)O)=C(/C=C/c3ccc([N+](=O)[O-])cc3[N+](=O)[O-])CS[C@H]12 [nitrocefin]
Km [3]: 69.43–16.96 µM

— paper PMC6985242, “Effect of Amoxicillin in combination with Imipenem-Relebactam against Mycobacterium abscessus” (Scientific Reports, 2020)
